# Calls of active or inactive are those of the source.
# Experiments:
# [1] = cytotoxicity toward DRD oncogenic fibroblasts, dose response, cell-based, non-viral oncogenic, luminescence (AID 1934); format: functional; settings: Homo sapiens
# [2] = inhibitors of SNCA 5'UTR-driven reporter translation, confirmation, H4 neuroglioma cells, luminescence (AID 1988); format: functional, cell-based
# [3] = non-specific cell cytotoxicity, dose response, cytotoxicity control for PAX8 inhibitor project, plate reader, dry powder samples (AID 743021); format: functional, cell-based
# [4] = luciferase reporter signal reduction – luminescence, H4-C neuroglioblastoma cells, dose response (AID 2458); format: functional, cell-based;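 further: H4 neuroglioblastoma cells stably carrying a luciferase reporter gene fusion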
# Paired box protein Pax-8 = Paired box protein Pax-8 (Homo sapiens, UniProt Q06710); test: inhibitors of PAX8-driven TPO luciferase reporter, dose response, RMG-I cells, cherry-pick (AID 687027); format: functional, cell-based;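 further: luciferase reporter driven by Pax8 target thyroperoxidase promoter measured by SteadyGlo luminescence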
# [5] = Luminescence Cell-Based Dose Response HTS to Identify Inhibitors of 5'UTR Stem-Loop Driven Prion Protein mRNA Translation in H4 Neuroglioblastoma Cells. [Related pubchem assays: 1827 (Project Summary), 1813 (Primary HTS)]; format: functional
# cells = format: functional, cell-based
# BJ [6] = test: cytotoxicity toward Ras-transformed BJeLR fibroblasts, dose response, cell-based, alamar blue fluorescence, cherrypicked samples (AID 2631); format: functional; settings: Homo sapiens;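 further: confirmatory dose-response assay in RAS-dependent BJ fibroblasts engineered with TERT, LT and ST, with cytotoxicity read by fluorescence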
# BJ [7] = test: cells; format: functional, cell-based; settings: Homo sapiens
# [8] = inhibitors of firefly luciferase expression or activity, dose response, H4 neuroglioma cells, luminescence (AID 1990); format: functional, cell-based
# [9] = inhibitors of SNCA 5'UTR-driven translation, confirmation, luminescence, H4 neuroglioblastoma cells, dose confirmation (AID 2454); format: functional, cell-based;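 further: H4 neuroglioblastoma cells carrying an alpha-synuclein 5'UTR luciferase reporter; potency for inhibition of the luciferase signal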
# Beta-galactosidase = Beta-galactosidase (Escherichia coli, UniProt Q8VNN2); test: PubChem AID 485352; format: functional
# [10] = target: Type-1 angiotensin II receptor (Homo sapiens, UniProt P30556); test: AT1 receptor antagonists, dose response, selectivity assay for APJ receptor antagonist project, cell-based, uHTS hits (AID 463214); format: functional;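 further: antagonist potency against angiotensin II stimulated AT1 response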
# [11] = target: T1, Endoribonuclease toxin MazF (Escherichia coli K-12, UniProt P0AE70); test: SAR analysis of small molecule activators of the MazEF TA System via a fluorescence-based single-stranded RNase assay counterscreen. [Related pubchem assays (depositor defined):AID504720, AID504743]; format: functional
# T1 sequence (P0AE70 whole entry): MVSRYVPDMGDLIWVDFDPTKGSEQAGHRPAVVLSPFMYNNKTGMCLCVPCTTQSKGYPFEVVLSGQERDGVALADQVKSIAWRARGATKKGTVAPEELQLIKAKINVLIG
# MEF = test: SAR analysis of small molecule cytotoxicity of MazEF TA System activators in embryonic fibroblast (MEF) cells. [Related pubchem assays (depositor defined):AID504720, AID504743]; format: functional; settings: Mus musculus
# [12] = target: T1, Endoribonuclease toxin MazF; test: fluorescent RNA oligo signal without MazF, dose response, counter-screen for MazEF activator project, biochemical, fluorescence, single-stranded RNase substrate (AID 588502); format: functional
# [13] = target: T1, Endoribonuclease toxin MazF; test: MazF toxin RNase activators, dose response, biochemical, fluorescence, single-stranded RNA substrate, uHTS hits (AID 588481); format: functional
# [14] = target: T1, Endoribonuclease toxin MazF; test: MazF endoribonuclease activators, SAR follow-up, biochemical, fluorescence, single-stranded RNA substrate (AID 588603); format: functional
# [15] = (§1) Counterscreen for antagonists of the orexin 1 receptor (OX1R; HCRTR1): Fluorescence-based cell-based high throughput dose response assay to identify antagonists of the parental CHO cell line. [Related pubchem assays (depositor defined):AID434989, AID435008, AID463079, AID485270, AID492963, AID492964, AID492965, AID493232, AID504699, AID504701]; format: functional
# Orexin receptor type 2 [16] = target: T2, Orexin receptor type 2 (Homo sapiens, UniProt O43614); test: Counterscreen assay for antagonists of the orexin 1 receptor (OX1R; HCRTR1): Fluorescence-based cell-based dose response assay for antagonists of the orexin 2 receptor (OX2R; HCRTR2), run by assay provider.; format: functional
# T2 sequence (O43614 whole entry): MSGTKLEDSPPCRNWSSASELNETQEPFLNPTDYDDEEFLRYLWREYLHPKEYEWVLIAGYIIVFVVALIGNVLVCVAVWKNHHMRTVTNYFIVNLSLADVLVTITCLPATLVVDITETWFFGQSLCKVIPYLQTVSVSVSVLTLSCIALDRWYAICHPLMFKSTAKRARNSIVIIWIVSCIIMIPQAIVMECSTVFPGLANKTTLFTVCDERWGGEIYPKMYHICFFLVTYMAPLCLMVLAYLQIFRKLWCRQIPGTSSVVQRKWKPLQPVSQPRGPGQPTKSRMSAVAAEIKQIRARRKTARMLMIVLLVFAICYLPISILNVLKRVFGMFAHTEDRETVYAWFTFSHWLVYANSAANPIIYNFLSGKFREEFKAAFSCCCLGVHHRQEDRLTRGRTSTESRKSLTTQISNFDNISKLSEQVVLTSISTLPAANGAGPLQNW
# [17] = target: T3, Orexin/Hypocretin receptor type 1 (Homo sapiens, UniProt O43613); test: Homogeneous Time Resolved Fluorescence (HTRF)-based cell-based high throughput dose response assay for antagonists of the orexin 1 receptor (OX1R; HCRTR1). [Related pubchem assays (depositor defined):AID434989, AID435008, AID463079, AID485270, AID492963, AID492964, AID492965, AID493232, AID504717, AID504718]; format: functional
# T3 sequence (O43613 whole entry): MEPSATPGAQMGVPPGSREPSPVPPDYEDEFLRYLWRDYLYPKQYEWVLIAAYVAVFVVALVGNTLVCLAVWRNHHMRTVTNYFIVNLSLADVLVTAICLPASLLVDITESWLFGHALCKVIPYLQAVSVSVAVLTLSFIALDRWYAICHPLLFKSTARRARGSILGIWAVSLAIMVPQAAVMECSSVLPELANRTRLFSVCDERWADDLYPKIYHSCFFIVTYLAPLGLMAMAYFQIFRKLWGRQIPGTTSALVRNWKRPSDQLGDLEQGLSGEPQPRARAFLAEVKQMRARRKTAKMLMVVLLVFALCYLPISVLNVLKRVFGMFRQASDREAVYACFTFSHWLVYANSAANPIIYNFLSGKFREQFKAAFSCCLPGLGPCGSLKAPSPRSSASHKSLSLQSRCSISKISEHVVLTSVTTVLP
# Orexin receptor type 2 [18] = target: T2, Orexin receptor type 2; test: Counterscreen assay for antagonists of the orexin 1 receptor (OX1R; HCRTR1): Homogeneous Time Resolved Fluorescence (HTRF)-based cell-based dose response assay for antagonists of the orexin 2 receptor (OX2R; HCRTR2), run by assay provider.; format: functional
# [19] = target: T3, Orexin/Hypocretin receptor type 1; test: Fluorescence-based cell-based high throughput dose response assay for antagonists of the orexin 1 receptor (OX1R; HCRTR1). [Related pubchem assays (depositor defined):AID434989, AID435008, AID463079, AID485270, AID492963, AID492964, AID492965, AID493232, AID504717, AID504718]; format: functional
# CHO-K1 = test: as §1, with “Homogeneous time resolved fluorescence (HTRF)-based” for “Fluorescence-based”, “cell-based” for “cell-based high throughput”, “CHO-K1” for “CHO”; format: functional; settings: Cricetulus griseus;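 further: potency for inhibition of ATP-stimulated IP1 production as antagonists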
# BJ [20] = test: cytotoxicity toward BJ-TERT fibroblasts, dose response, cell-based, RAS-independent, luminescence (AID 1933); format: functional; settings: Homo sapiens
# BJ [21] = test: cytotoxicity toward BJ-TERT-LT-ST fibroblasts, dose response, cell-based, RAS-independent, luminescence (AID 1935); format: functional; settings: Homo sapiens;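 further: BJ fibroblasts immortalized with TERT plus LT and ST oncogenes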
# Nonstructural protein 1 = Nonstructural protein 1 (Influenza A virus, UniProt Q194T2); format: functional, Influenza A virus (A/California/07/2009(H1N1))
# [22] = target: Intestinal-type alkaline phosphatase (Mus musculus, UniProt P24822); test: PubChem AID 488785; format: functional
# [23] = target: T4, Alkaline phosphatase, tissue-nonspecific isozyme (Homo sapiens, UniProt P05186); test: TNAP enzyme inhibition by screening hits, dose response, selectivity assay for mouse IAP inhibitor project, biochemical, human TNAP, uHTS hits (AID 488906); format: functional
# T4 sequence (P05186 whole entry): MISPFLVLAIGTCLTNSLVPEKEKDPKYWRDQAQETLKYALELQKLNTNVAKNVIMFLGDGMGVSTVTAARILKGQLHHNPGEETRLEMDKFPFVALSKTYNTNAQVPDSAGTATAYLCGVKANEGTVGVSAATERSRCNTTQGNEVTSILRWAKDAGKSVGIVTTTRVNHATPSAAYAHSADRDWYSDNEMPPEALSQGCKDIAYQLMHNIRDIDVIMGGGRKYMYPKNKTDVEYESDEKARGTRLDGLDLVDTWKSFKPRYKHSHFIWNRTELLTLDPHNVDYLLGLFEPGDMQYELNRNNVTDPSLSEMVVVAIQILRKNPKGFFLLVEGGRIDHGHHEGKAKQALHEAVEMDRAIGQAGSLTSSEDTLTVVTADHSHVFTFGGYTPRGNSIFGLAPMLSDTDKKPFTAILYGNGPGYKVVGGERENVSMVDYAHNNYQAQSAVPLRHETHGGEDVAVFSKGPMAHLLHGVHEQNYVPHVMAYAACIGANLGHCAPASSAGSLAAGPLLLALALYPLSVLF
# [24] = target: Intestinal-type alkaline phosphatase (Homo sapiens, UniProt P09923); test: inhibition of human intestinal alkaline phosphatase – biochemical, dose response (AID 488876); format: functional
# [25] = target: Delta-type opioid receptor (Homo sapiens, UniProt P41143); test: Counterscreen for agonists of heterodimerization of the mu 1 (OPRM1) and delta 1 (OPRD1) opioid receptors: Luminescence-based cell-based high throughput dose response assay to identify agonists of OPRD1 homodimerization. [Related pubchem assays (depositor defined):AID504326, AID504355, AID504692, AID504904, AID504905]; format: functional
# Mu-type opioid receptor = Mu-type opioid receptor (Homo sapiens, UniProt P35372); test: Counterscreen for agonists of heterodimerization of the mu 1 (OPRM1) and delta 1 (OPRD1) opioid receptors: Luminescence-based cell-based high throughput dose response assay to identify agonists of OPRM1 homodimerization.; format: functional;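 further: U2OS cells expressing OPRM1 and beta-arrestin as split beta-galactosidase partners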
# [26] = target: 5-hydroxytryptamine receptor 5A (Homo sapiens, UniProt P47898); test: Counterscreen for agonists of OPRM1-OPRD1 heterodimerization: luminescence-based cell-based high throughput dose response assay to identify agonists of 5-hydroxytryptamine (serotonin) 5A receptor (HTR5A). [Related pubchem assays (depositor defined):AID504326, AID504355, AID504692, AID504904, AID504905]; format: functional
# Sequence of 5-hydroxytryptamine receptor 5A (P47898 whole entry): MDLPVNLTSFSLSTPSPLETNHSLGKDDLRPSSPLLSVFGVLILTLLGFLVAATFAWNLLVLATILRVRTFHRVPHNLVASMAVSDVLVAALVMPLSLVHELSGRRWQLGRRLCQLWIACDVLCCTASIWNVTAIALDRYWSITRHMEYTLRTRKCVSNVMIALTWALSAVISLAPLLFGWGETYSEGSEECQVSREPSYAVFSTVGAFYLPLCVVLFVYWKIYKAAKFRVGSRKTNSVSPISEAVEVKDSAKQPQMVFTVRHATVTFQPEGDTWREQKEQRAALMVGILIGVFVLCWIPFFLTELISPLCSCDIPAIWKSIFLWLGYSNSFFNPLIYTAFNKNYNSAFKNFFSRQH
# Sequence of Mu-type opioid receptor (P35372 whole entry): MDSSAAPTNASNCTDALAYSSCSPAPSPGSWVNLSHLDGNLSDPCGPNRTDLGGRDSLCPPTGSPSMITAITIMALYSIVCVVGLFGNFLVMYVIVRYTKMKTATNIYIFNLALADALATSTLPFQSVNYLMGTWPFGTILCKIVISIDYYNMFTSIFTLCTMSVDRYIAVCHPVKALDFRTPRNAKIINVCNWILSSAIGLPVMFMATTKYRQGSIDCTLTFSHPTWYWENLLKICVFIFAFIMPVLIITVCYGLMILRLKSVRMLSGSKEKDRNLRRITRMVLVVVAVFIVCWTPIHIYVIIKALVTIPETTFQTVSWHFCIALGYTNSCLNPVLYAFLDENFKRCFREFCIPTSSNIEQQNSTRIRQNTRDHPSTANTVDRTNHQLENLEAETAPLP
# Sequence of Paired box protein Pax-8 (Q06710 whole entry): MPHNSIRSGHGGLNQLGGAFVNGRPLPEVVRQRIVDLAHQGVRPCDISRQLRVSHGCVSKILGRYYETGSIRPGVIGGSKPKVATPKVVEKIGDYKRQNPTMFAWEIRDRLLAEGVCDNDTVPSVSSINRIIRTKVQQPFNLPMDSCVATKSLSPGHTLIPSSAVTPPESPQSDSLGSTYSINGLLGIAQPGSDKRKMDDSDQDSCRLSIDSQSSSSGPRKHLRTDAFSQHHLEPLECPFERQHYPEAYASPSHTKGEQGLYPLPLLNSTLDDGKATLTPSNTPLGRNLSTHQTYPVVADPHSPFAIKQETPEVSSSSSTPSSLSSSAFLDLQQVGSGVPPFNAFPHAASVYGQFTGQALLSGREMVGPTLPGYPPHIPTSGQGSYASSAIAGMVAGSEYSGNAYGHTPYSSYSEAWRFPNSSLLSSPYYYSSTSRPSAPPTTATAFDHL
# Sequence of Type-1 angiotensin II receptor (P30556 whole entry): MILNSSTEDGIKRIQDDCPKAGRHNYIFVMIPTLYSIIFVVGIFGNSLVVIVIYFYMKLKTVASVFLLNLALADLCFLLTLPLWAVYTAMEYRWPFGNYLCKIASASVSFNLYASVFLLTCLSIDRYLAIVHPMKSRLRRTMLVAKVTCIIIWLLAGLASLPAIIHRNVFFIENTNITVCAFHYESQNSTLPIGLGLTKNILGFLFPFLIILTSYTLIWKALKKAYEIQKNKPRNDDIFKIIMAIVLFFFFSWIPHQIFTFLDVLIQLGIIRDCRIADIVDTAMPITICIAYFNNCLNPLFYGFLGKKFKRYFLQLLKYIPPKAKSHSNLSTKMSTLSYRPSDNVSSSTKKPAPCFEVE
# Sequence of Beta-galactosidase (Q8VNN2 whole entry): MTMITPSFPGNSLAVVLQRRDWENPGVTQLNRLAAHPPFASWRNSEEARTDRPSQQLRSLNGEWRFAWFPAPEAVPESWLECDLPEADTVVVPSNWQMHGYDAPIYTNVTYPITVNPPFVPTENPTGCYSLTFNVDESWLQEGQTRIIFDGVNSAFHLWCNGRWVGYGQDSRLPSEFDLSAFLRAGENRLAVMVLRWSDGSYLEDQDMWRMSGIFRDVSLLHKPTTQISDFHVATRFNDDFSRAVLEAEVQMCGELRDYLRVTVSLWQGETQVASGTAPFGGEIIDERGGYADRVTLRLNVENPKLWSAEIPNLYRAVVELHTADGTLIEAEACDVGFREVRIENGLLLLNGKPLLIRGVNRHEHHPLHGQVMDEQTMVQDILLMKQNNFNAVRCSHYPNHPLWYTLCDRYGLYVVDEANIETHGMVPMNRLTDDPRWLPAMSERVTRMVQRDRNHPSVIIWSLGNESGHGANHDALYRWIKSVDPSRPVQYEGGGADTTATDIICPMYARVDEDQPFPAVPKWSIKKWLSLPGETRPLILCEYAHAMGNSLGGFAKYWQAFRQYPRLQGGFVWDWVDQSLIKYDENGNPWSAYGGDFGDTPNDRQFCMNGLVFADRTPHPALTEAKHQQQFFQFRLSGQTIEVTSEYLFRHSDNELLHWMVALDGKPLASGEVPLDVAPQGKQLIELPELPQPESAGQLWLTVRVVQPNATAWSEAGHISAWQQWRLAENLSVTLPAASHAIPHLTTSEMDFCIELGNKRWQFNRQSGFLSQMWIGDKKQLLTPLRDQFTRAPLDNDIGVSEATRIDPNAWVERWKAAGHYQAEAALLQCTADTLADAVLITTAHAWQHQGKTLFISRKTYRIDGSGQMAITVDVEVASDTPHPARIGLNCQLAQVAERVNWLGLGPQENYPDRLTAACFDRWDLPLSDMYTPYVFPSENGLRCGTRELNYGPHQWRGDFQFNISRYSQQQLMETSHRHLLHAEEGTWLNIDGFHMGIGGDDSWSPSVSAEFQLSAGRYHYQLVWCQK
# Sequence of Nonstructural protein 1 (Q194T2 whole entry): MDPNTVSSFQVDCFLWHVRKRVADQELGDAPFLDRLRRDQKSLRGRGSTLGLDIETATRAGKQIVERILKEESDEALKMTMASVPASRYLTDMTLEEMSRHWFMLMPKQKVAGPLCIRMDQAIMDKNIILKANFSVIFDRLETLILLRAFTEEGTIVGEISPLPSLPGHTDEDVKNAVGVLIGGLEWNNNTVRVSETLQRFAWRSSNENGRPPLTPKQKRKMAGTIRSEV
# Sequence of Delta-type opioid receptor (P41143 whole entry): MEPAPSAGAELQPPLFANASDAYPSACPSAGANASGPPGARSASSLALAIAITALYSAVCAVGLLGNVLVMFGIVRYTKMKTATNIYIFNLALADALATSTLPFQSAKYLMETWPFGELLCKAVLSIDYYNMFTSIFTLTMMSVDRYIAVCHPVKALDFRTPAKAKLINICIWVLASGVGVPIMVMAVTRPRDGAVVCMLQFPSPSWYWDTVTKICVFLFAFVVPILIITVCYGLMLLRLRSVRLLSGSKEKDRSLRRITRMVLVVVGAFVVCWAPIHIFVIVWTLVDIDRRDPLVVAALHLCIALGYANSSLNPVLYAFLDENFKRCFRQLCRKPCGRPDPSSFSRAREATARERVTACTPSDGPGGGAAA
# Sequence of Intestinal-type alkaline phosphatase (Homo sapiens, UniProt P09923) (P09923 whole entry): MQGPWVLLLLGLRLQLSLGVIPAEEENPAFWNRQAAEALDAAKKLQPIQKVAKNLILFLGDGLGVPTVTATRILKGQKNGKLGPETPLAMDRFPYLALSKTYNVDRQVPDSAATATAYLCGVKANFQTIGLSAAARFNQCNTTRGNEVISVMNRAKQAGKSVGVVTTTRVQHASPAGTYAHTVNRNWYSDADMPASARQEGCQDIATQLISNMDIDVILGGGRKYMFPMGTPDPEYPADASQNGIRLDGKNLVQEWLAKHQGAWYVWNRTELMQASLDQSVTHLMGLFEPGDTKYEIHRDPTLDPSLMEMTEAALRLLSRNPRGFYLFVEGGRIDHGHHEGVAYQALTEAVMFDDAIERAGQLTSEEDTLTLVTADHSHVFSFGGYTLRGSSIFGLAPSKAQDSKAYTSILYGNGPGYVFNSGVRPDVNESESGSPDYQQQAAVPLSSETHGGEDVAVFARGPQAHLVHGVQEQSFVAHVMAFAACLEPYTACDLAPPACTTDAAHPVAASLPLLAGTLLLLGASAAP
# Sequence of Intestinal-type alkaline phosphatase (Mus musculus, UniProt P24822) (P24822 whole entry): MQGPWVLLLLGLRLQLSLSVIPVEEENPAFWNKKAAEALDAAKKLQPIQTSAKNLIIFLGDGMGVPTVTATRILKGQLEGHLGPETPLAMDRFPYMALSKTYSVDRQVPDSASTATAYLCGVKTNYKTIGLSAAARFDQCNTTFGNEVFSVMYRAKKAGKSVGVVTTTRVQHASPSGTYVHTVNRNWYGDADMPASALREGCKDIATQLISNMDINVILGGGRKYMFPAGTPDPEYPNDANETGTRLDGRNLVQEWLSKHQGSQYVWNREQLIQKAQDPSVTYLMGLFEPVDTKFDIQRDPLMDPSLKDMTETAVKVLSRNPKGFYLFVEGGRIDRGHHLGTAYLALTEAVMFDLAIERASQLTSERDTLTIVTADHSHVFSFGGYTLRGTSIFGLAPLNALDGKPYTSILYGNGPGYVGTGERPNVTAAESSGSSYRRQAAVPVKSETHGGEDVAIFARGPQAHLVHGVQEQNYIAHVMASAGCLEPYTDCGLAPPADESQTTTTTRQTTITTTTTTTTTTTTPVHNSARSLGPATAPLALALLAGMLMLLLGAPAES
smiles,measurement,setting,value
CCOc1ccc(C2=Nn3c(nnc3-c3ccccc3OC)SC2)cc1,EC50,[1],< 0.12 µM (active)
same,EC50,[2],< 0.1 µM (active)
same,AC50,[3],63 µM (active)
same,EC50,[4],0.034 µM (active)
same,AC50,Paired box protein Pax-8,0.317 µM (active)
same,EC50,[5],< 0.1 µM (active)
same,EC50,cells,0.046 µM (active)
same,EC50,BJ [6],< 0.104 µM (active)
same,EC50,BJ [7],< 0.12 µM (active)
same,EC50,[8],< 0.1 µM (active)
same,EC50,[9],0.04 µM (active)
O=C1NC[C@H](c2ccccc2)OC(=O)[C@@H](Cc2ccc(F)cc2)CC/C=C/C[C@@H]1CC(=O)N(CCO)Cc1ccccc1,EC50,Beta-galactosidase,19.5 µM (active)
same,IC50,[10],33.7 µM (not active)
Cc1c(C(=O)Oc2cc(N)n(S(C)(=O)=O)n2)cccc1[N+](=O)[O-],EC50,[11],> 99 µM (inactive)
same,CC50,MEF,> 99 µM (inactive)
same,EC50,[12],> 99 µM (inactive)
same,EC50,[13],5.59 µM (active)
same,EC50,[14],6.63 µM (active)
CSc1cccc(NC(=O)C2CCCN(S(=O)(=O)c3cccs3)C2)c1 (stereo unspecified),IC50,[15],> 49.7 µM (inactive)
same,IC50,Orexin receptor type 2 [16],5.3 µM (active)
same,IC50,[17],0.546 µM (active)
same,IC50,Orexin receptor type 2 [18],> 50 µM (inactive)
same,IC50,[19],6.4 µM (active)
same,IC50,CHO-K1,> 66.2 µM (inactive)
CC(=O)c1ccc(NC(=O)N2CCc3ccccc3C2)cc1,EC50,[1],> 150 µM (not active)
same,EC50,BJ [20],> 150 µM (not active)
same,EC50,BJ [6],6.04 µM (active)
same,EC50,BJ [7],10.5 µM (active)
same,EC50,BJ [21],> 150 µM (not active)
Cc1cc(C)cc(NC(=S)NC2CC3CCCC(C2)N3Cc2cccs2)c1 (stereo unspecified),IC50,Nonstructural protein 1,> 100 µM (active)
same,IC50,[22],2.17 µM (active)
same,IC50,[23],12.9 µM (active)
same,IC50,[24],4.06 µM (active)
COc1ccc(C2C(C#N)=C(N)N(c3sc4c(c3C#N)CCCC4)C3=C2C(=O)CC(C)(C)C3)cc1 (stereo unspecified),EC50,[25],11.6 µM (inactive)
same,EC50,Mu-type opioid receptor,> 92.5 µM (inactive)
same,EC50,[26],> 92.5 µM (inactive)

# From ChEMBL document CHEMBL1201862, “PubChem BioAssay data set” (2004)
